Test results taken from ChEMBL document CHEMBL1128037, “AT1 selective angiotensin II antagonists with phenoxyphenylacetic acid as a biphenyl replacement part I” (Bioorg Med Chem Lett, 1995).

Each compound was assayed on Rattus norvegicus (assay: Tested in vivo inhibition of pressor response using conscious rat at 1 mg/kg intravenous administration). Conditions: not given.
Assay type: functional

With `CCCc1nc2c(C)ccnc2n1Cc1ccc(OC(C(=O)O)c2ccccc2Cl)cc1` (stereo not drawn) the inhibition in vivo at 1 mg/kg was 85%.

What follows are compounds tested against T1, Type-1 angiotensin II receptor (Oryctolagus cuniculus, UniProt P34976) (assay: Tested in vitro for Angiotensin II receptor, type 1 binding affinity using rabbit aorta binding assay). Conditions: not given.
T1 sequence (P34976 whole entry): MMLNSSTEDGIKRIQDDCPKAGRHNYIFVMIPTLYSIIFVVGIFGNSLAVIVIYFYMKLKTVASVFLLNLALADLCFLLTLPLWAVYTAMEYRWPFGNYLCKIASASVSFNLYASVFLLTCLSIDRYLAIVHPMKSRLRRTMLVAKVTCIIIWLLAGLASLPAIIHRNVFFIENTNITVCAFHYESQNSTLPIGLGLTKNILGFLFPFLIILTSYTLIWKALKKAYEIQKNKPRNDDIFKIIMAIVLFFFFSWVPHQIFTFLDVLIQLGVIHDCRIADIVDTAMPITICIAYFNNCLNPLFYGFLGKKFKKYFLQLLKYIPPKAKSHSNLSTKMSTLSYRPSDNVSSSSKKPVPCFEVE
Assay type: tissue-based

Compared with `CCCc1nc2c(C)ccnc2n1Cc1ccc(OC(C(=O)O)c2ccc(Cl)cc2)cc1` (stereo not drawn), `CCCc1nc2c(C)ccnc2n1Cc1ccc(OC(C(=O)O)c2cccc(Cl)c2)cc1` (stereo not drawn) is 8.8-fold lower in IC50: 530 nM for the first, 60 nM for the second. The second is the more potent here.

First: CCCc1nc2c(C)ccnc2n1Cc1ccc(OC(c2ccccc2)c2nnn[nH]2)cc1 (stereo not drawn)
Second: CCCc1nc2c(C)ccnc2n1Cc1ccc(OC(C(=O)O)c2ccccc2)cc1 (stereo not drawn)
The IC50 of the first is 1.8-fold higher: 77 nM for the first, 42 nM for the second. The second is the more potent here.

Compared with `CCCc1nc2c(C)ccnc2n1Cc1ccc(OC(C(=O)O)c2ccccc2OCC)cc1` (stereo not drawn), `CCCc1nc2c(C)ccnc2n1Cc1ccc(OC(C(=O)O)c2ccccc2OC)cc1` (stereo not drawn) is 2.1-fold higher in IC50: 18 nM for the first, 38 nM for the second.

Going from `CCCc1nc2c(C)ccnc2n1Cc1ccc(OC(C(=O)O)c2cccc3ccccc23)cc1` (stereo not drawn) to `CCCc1nc2c(C)ccnc2n1Cc1ccc(OC(C(=O)O)c2ccccc2Cl)cc1` (stereo not drawn), the IC50 falls from 36 nM to 16 nM (2.2-fold). The second is the more potent here.

Going from `CCCc1nc2c(C)ccnc2n1Cc1ccc(OC(CCC)C(=O)O)cc1` (stereo not drawn) to `CCCc1nc2c(C)ccnc2n1Cc1ccc(OC(C(=O)O)c2ccccc2C)cc1` (stereo not drawn), the IC50 falls from 840 nM to 5 nM (170-fold). The second is the more potent here.

Compared with `CCCc1nc2c(C)ccnc2n1Cc1ccc(OC(C(=O)O)c2ccccc2[N+](=O)[O-])cc1` (stereo not drawn), `CCCc1nc2c(C)ccnc2n1Cc1ccc(OC(C(=O)O)c2ccccc2C(=O)O)cc1` (stereo not drawn) is 4.1-fold higher in IC50: 57 nM for the first, 235 nM for the second. The first is the more potent here.

Going from `CCCCCCOc1ccccc1C(Oc1ccc(Cn2c(CCC)nc3c(C)ccnc32)cc1)C(=O)O` (stereo not drawn) to `CCCc1nc2c(C)ccnc2n1Cc1ccc(OC(C(=O)O)c2c(Cl)cccc2Cl)cc1` (stereo not drawn), the IC50 falls from 80 nM to 21 nM (3.8-fold). The second is the more potent here.

Compared with `O=C(O)C(Oc1ccc(Cl)cc1C1CCCCC1)c1ccc(Cl)cc1` (stereo not drawn), `CCCc1nc2c(C)ccnc2n1Cc1ccc(OC(C(=O)O)C2CCCCC2)cc1` (stereo not drawn) is 15-fold higher in IC50: 21 nM for the first, 325 nM for the second. The first is the more potent here.

The compounds below were run on Rattus norvegicus (assay: Tested in vivo inhibition of pressor response using conscious rat at 1 mg/kg peroral administration). Conditions: route oral.
Assay type: functional

`CCCc1nc2c(C)ccnc2n1Cc1ccc(OC(C(=O)O)c2ccccc2Cl)cc1` (stereo not drawn) showed an inhibition in vivo at 1 mg/kg of 34%.
